Tests used:
[1] = test system: B16F10 murine melanoma cells; test: Prevention of hydrogen peroxide-induced oxidative stress injury (MTT cell viability assay); type: cell-based; conditions: 50 μg/ml peptide for 24 h, then 0.5 mM hydrogen peroxide for 2 h
Protocol: (§1) B16F10 murine melanoma cells (American Type Culture Collection, Manassas, Va., USA) were cultured in Dulbecco's modified Eagle's medium (DMEM) (Thermo Scientific, Barrington, Ill., USA) with 10% fetal bovine serum (FBS) (Gibco, Grand Island, N.Y., USA) and penicillin/streptomycin (100 IU/[…]) in a humidified atmosphere containing 5% CO2 at 37° C.
(§2) Cells (1×10^3) were seeded in 96-well plates. After treatment with hydrogen peroxide and peptide of SEQ ID NO: 1, MTT was added to a final concentration of 0.5 mg/ml and incubated for 4 h at 37° C. to allow MTT reduction. The formazan crystals were then dissolved in 10% sodium dodecyl sulfate (SDS) containing 0.01 N HCl and absorbance was measured at the dual wavelengths of 570 and 630 nm with a spectrophotometer (VersaMax; Molecular Devices, Silicon Valley, Calif., USA).
Cells were treated with 50 μg/ml peptide of SEQ ID NO: 1 for 24 h and then exposed to 0.5 mM hydrogen peroxide for 2 h.

[2] = test system: B16F10 murine melanoma cells; test: Protection against hydrogen peroxide-induced oxidative stress injury (MTT cell viability assay); type: cell-based; conditions: 30 μM hydrogen peroxide for 24 h, then 50 μg/ml peptide and hydrogen peroxide for 48 h
Protocol: as §1, §2
Cells were exposed to 30 μM hydrogen peroxide for 24 h and then treated with 50 μg/ml peptide of SEQ ID NO: 1 and hydrogen peroxide for 48 h.

Bleaching of hair = conditions: 7.5% hydrogen peroxide, 400 μg/ml peptide, 14 days
Protocol: FIG. 4 provides photographs of the hairs decolored with 7.5% hydrogen peroxide. Top panel, 7.5% hydrogen peroxide only; bottom panel, 7.5% hydrogen peroxide and incubated with 400 μg/ml peptide of the invention.
Hairs were treated with 7.5% hydrogen peroxide with or without peptide of SEQ ID NO: 1 for 14 days.

DPPH assay = type: physicochemical; conditions: 50 μg/ml peptide, 0.2 mM DPPH, 16 h in the dark at room temperature, absorbance 515 nm
Protocol: 50 μg/ml peptide of SEQ ID NO: 1 was treated with 0.2 mM DPPH for 16 h. Data are represented as the means±SD from three independent experiments. ***p<0.001.
50 μg/ml peptide of SEQ ID NO: 1 was added in 96-well plates and incubated with 0.2 mM DPPH. Plates incubated in the dark for 16 hours at room temperature. After 16 h, the absorbance was measured at 515 nm using an automated plat reader (molecular devices).

Sequence: FKCRRWQWRMKKL [Peptide of SEQ ID NO: 1]
- hydrogen peroxide-induced stress injury (MTT assay), prevention [1]: attenuates hydrogen peroxide-induced stress injury
- hydrogen peroxide-induced stress injury (MTT assay), protection [2]: attenuates hydrogen peroxide-induced stress injury
- hair color after hydrogen peroxide immersion (Bleaching of hair): hair still had bright yellow
- DPPH radical scavenging capacity (DPPH assay): significantly decreased DPPH radical scavenging capacity

Source: patent US11154482B2, “Peptide, composition and method for anti-hair graying” (Renorigin Innovation Institute Co., Ltd., priority 2020, dated 2021)
